Data as given in patent US7935485B2, “Genetic polymorphisms for identifying individuals at risk for drug-induced vestibular dysfunction” (University of Maryland College Park, priority 2007, dated 2011).
“Also recorded” adds a separate entry of the source.

Legend:
[1] = in vivo; cited from earlier work
[2] = cited from earlier work
[3] = Case/control study, subject characteristics of cases with GM-induced vestibular dysfunction; type: in vivo, human; details: attributed to GM therapy
Method: Subjects: Subjects were recruited for participation in a case/control study. Cases were recruited from various vestibular dysfunction support groups through advertisements and direct mailings. Cases were included if they could document profound unilateral or bilateral vestibular loss due specifically to GM administration after the age of 18 yr. […] Normal vestibular function was determined with the use of a clinical balance function questionnaire and medical history information. There are no apparent sex or racial differences in susceptibility to GM-induced vestibular dysfunction, so no inclusion limitations were made on those parameters, although the vast majority of recruited subjects were white. Because allele frequencies for many polymorphisms differ by race and only 10 non-white subjects completed the study, all results are presented for the 263 white participants. Children have higher risk for GM-induced ototoxicity, so only individuals >18 yr. and who were >18 yr. at the time of GM therapy were included. All subjects provided written informed consent and all procedures were approved by the University of Maryland Institutional Review Board.
Procedures: Potential subjects completed medical history and balance function questionnaires, and patients specifically provided medical record release authorizations. […]

vestibular hair cell = details: by inhibiting NO and ROS production; cited from earlier work
[4] = provided simultaneously with GM; cited from earlier work

## gentamicin [GM]
[1]
  metabolism: not metabolized, but simply excreted by the kidney; also recorded: not metabolized by the body
[2]; GM-treated patients (33), different patients than those with auditory dysfunction
  vestibular dysfunction: three
[2]; GM-treated patients, number affected of 33
  auditory dysfunction: three of 33
[3]
  Hearing complications, (%): (34%)
  Renal complications, (%): (14%)

## O[C@@H]1CO[C@H]2[C@@H]1OC[C@@H]2O [isosorbide]
Vestibular hair cell
  effect on GM-induced vestibular hair cell death: delay GM-induced vestibular hair cell death

B1: BDNF: brain-derived neurotrophic factor, a neurotrophic factor (protein, UniProt P23560 19-247, looked up)
Neurotrophic factor BDNF …: APMKEANIRGQGGLAYPGVRTHGTLESVNGPKAGSRGLTSLADTFEHVIEELLDEDQKVRPNEENNKDADLYTSRVMLSSQVPLEPPLLFLLEEYKNYLDAANMSMRVRRHSDPARRGELSVCDSISEWVTAADKKTAVDMSGGTVTVLEKVPVSKGQLKQYFYETKCNPMGYTKEGCRGIDKRHWNSQCRTTQSYVRALTMDSKKRIGWRFIRIDTSCVCTLTIKRGR
[4]
  effect on ototoxic damage: limits ototoxic damage
